Source: patent US9113629B2, “4-amino-6-(4-substituted-phenyl)-picolinates and 6-amino-2-(4-substituted-phenyl)-pyrimidine-4-carboxylates and their use as herbicides” (DOW AGROSCIENCES LLC, priority 2013, dated 2015)

test system: TRZSS: wheat, including spring and winter (Triticum aestivum); assay: Post-emergent Test III, herbicidal activity in wheat and barley; type: in vivo; conditions: Table 9; dose for 20 percent growth reduction, probit analysis; 21 d
Procedure: (§1) Post-emergent Test III. Seeds of the desired test plant species were planted in Sun Gro MetroMix® 306 planting mixture, which typically has a pH of 6.0 to 6.8 and an organic matter content of about 30 percent, in plastic pots with a surface area of 103.2 square centimeters (cm^2). When required to ensure good germination and healthy plants, a fungicide treatment and/or other chemical or physical treatment was applied. The plants were grown for 7-36 days (d) in a greenhouse with an approximate 14 hour (h) photoperiod which was maintained at about 18° C. during the day and 17° C. during the night. Nutrients and water were added on a regular basis and supplemental lighting was provided with overhead metal halide 1000-Watt lamps as necessary. The plants were employed for testing when they reached the second or third true leaf stage.
(§2) A weighed amount, determined by the highest rate to be tested, of each test compound was placed in a 25 mL glass vial and was dissolved in 4 mL of a 97:3 v/v mixture of acetone and DMSO to obtain concentrated stock solutions. […] The concentrated stock solutions obtained were diluted with 20 mL of an aqueous mixture containing acetone, water, isopropyl alcohol, DMSO, Agri-Dex crop oil concentrate, and X-77 surfactant in a 48:39:10:1.5:1.5:0.02 v/v ratio to obtain spray solutions containing the highest application rates. Additional application rates were obtained by serial dilution of 12 mL of the high rate solution into a solution containing 2 mL of 97:3 v/v mixture of acetone and DMSO and 10 mL of an aqueous mixture containing acetone, water, isopropyl alcohol, DMSO, Agri-Dex crop oil concentrate, and X-77 surfactant in a 48:39:10:1.5:1.5:0.02 v/v ratio to obtain ½×, ¼×, ⅛× and 1/16× rates of the high rate. Compound requirements are based upon a 12 mL application volume at a rate of 187 liters per hectare (L/ha). Formulated compounds were applied to the plant material with an overhead Mandel track sprayer equipped with 8002E nozzles calibrated to deliver 187 L/ha over an application area of 0.503 square meters at a spray height of 18 inches (43 cm) above the average plant canopy height. Control plants were sprayed in the same manner with the solvent blank.
(§3) The treated plants and control plants were placed in a greenhouse as described above and watered by subirrigation to prevent wash-off of the test compounds. After 21 d, the condition of the test plants as compared with that of the untreated plants was determined visually and scored on a scale of 0 to 100 percent where 0 corresponds to no injury and 100 corresponds to complete kill.
(§4) By applying the well-accepted probit analysis as described by J. Berkson in Journal of the American Statistical Society, 48, 565 (1953) and by D. Finney in “Probit Analysis” Cambridge University Press (1952), herbicidal injury of a specific compound at various rates can be used to calculate GR20, GR50, GR80 and GR90 values, which are defined as growth reduction factors that correspond to the effective dose of herbicide required to provide plant growth reduction (GR) of 20 percent, 50 percent, 80 percent and 90 percent, respectively. Probit analysis was applied to data collected from multiple dose rates of individual compounds utilizing the procedures explained in the following examples. The analysis of those dose rates is captured in the following tables.

Row | Compound | GR20 TRZSS [g ai/ha]
1 | Nc1c(F)c(-c2cc(F)c(Br)cc2F)nc(C(=O)O)c1Cl [Compound 42, 4-amino-6-(4-bromo-2,5-difluorophenyl)-3-chloro-5-fluoropicolinic acid] | 1

same assay, conditions: Triticum aestivum, post-emergence, 504 h; Table 9; 35 g ai/ha; post-emergent; 21 d; read-out: Visual Growth Reduction (%) 21 Days After Application TRZSS

Row | Compound | pest or weed control at 35 g/ha [%]
2 | Nc1c(F)c(-c2cc(F)c(Br)cc2F)nc(C(=O)O)c1Cl [Compound 42, 4-amino-6-(4-bromo-2,5-difluorophenyl)-3-chloro-5-fluoropicolinic acid] | 85 to 94

same assay, conditions: Triticum aestivum, post-emergence, 504 h; Table 9; 70 g ai/ha; post-emergent; 21 d; read-out: Visual Growth Reduction (%) 21 Days After Application TRZSS

Row | Compound | pest or weed control at 70 g/ha [%]
3 | Nc1c(F)c(-c2cc(F)c(Br)cc2F)nc(C(=O)O)c1Cl [Compound 42, 4-amino-6-(4-bromo-2,5-difluorophenyl)-3-chloro-5-fluoropicolinic acid] | 85 to 94

same assay, conditions: Triticum aestivum, post-emergence, 504 h; Table 9; 140 g ai/ha; post-emergent; 21 d; read-out: Visual Growth Reduction (%) 21 Days After Application TRZSS

Row | Compound | pest or weed control at 140 g/ha [%]
4 | Nc1c(F)c(-c2cc(F)c(Br)cc2F)nc(C(=O)O)c1Cl [Compound 42, 4-amino-6-(4-bromo-2,5-difluorophenyl)-3-chloro-5-fluoropicolinic acid] | 95 to 100

test system: LOLSS: ryegrass including, Italian ryegrass (Lolium multiflorum), rigid ryegrass (Lolium rigidum), annual ryegrass (Lolium multiflorum subsp. Gaudini); assay: as above; type: in vivo; conditions: Table 9; dose for 50 percent growth reduction, probit analysis; 21 d
Procedure: as §1, §2, §3, §4

Row | Compound | GR50 LOLSS [g ai/ha]
5 | Nc1c(F)c(-c2cc(F)c(Br)cc2F)nc(C(=O)O)c1Cl [Compound 42, 4-amino-6-(4-bromo-2,5-difluorophenyl)-3-chloro-5-fluoropicolinic acid] | 76

same assay, conditions: Table 9; dose for 80 percent growth reduction, probit analysis; 21 d

Row | Compound | GR80 LOLSS [g ai/ha]
6 | Nc1c(F)c(-c2cc(F)c(Br)cc2F)nc(C(=O)O)c1Cl [Compound 42, 4-amino-6-(4-bromo-2,5-difluorophenyl)-3-chloro-5-fluoropicolinic acid] | >140

test system: APESV: bentgrass (Apera spica-venti); assay: as above; type: in vivo; conditions: Apera spica-venti, post-emergence, 504 h; Table 9; 35 g ai/ha; post-emergent; 21 d; read-out: Visual Growth Reduction (%) 21 Days After Application APESV
Procedure: as §1, §2, §3, §4

Row | Compound | pest or weed control at 35 g/ha [%]
7 | Nc1c(F)c(-c2cc(F)c(Br)cc2F)nc(C(=O)O)c1Cl [Compound 42, 4-amino-6-(4-bromo-2,5-difluorophenyl)-3-chloro-5-fluoropicolinic acid] | 85 to 94

same assay, conditions: Apera spica-venti, post-emergence, 504 h; Table 9; 70 g ai/ha; post-emergent; 21 d; read-out: Visual Growth Reduction (%) 21 Days After Application APESV

Row | Compound | pest or weed control at 70 g/ha [%]
8 | Nc1c(F)c(-c2cc(F)c(Br)cc2F)nc(C(=O)O)c1Cl [Compound 42, 4-amino-6-(4-bromo-2,5-difluorophenyl)-3-chloro-5-fluoropicolinic acid] | 85 to 94

same assay, conditions: Apera spica-venti, post-emergence, 504 h; Table 9; 140 g ai/ha; post-emergent; 21 d; read-out: Visual Growth Reduction (%) 21 Days After Application APESV

Row | Compound | pest or weed control at 140 g/ha [%]
9 | Nc1c(F)c(-c2cc(F)c(Br)cc2F)nc(C(=O)O)c1Cl [Compound 42, 4-amino-6-(4-bromo-2,5-difluorophenyl)-3-chloro-5-fluoropicolinic acid] | 95 to 100

same assay, conditions: Table 9; dose for 50 percent growth reduction, probit analysis; 21 d

Row | Compound | GR50 APESV [g ai/ha]
10 | Nc1c(F)c(-c2cc(F)c(Br)cc2F)nc(C(=O)O)c1Cl [Compound 42, 4-amino-6-(4-bromo-2,5-difluorophenyl)-3-chloro-5-fluoropicolinic acid] | 7

same assay, conditions: Table 9; dose for 80 percent growth reduction, probit analysis; 21 d

Row | Compound | GR80 APESV [g ai/ha]
11 | Nc1c(F)c(-c2cc(F)c(Br)cc2F)nc(C(=O)O)c1Cl [Compound 42, 4-amino-6-(4-bromo-2,5-difluorophenyl)-3-chloro-5-fluoropicolinic acid] | 22

test system: HORSS: barley, including spring and winter (Hordeum vulgare); assay: as above; type: in vivo; conditions: Hordeum vulgare, post-emergence, 504 h; Table 9; 35 g ai/ha; post-emergent; 21 d; read-out: Visual Growth Reduction (%) 21 Days After Application HORSS
Procedure: as §1, §2, §3, §4

Row | Compound | pest or weed control at 35 g/ha [%]
12 | Nc1c(F)c(-c2cc(F)c(Br)cc2F)nc(C(=O)O)c1Cl [Compound 42, 4-amino-6-(4-bromo-2,5-difluorophenyl)-3-chloro-5-fluoropicolinic acid] | 85 to 94

same assay, conditions: Hordeum vulgare, post-emergence, 504 h; Table 9; 70 g ai/ha; post-emergent; 21 d; read-out: Visual Growth Reduction (%) 21 Days After Application HORSS

Row | Compound | pest or weed control at 70 g/ha [%]
13 | Nc1c(F)c(-c2cc(F)c(Br)cc2F)nc(C(=O)O)c1Cl [Compound 42, 4-amino-6-(4-bromo-2,5-difluorophenyl)-3-chloro-5-fluoropicolinic acid] | 85 to 94

same assay, conditions: Hordeum vulgare, post-emergence, 504 h; Table 9; 140 g ai/ha; post-emergent; 21 d; read-out: Visual Growth Reduction (%) 21 Days After Application HORSS

Row | Compound | pest or weed control at 140 g/ha [%]
14 | Nc1c(F)c(-c2cc(F)c(Br)cc2F)nc(C(=O)O)c1Cl [Compound 42, 4-amino-6-(4-bromo-2,5-difluorophenyl)-3-chloro-5-fluoropicolinic acid] | 95 to 100
